Key:
[1] = tested on: NGF-induced mechanical hyperalgesia; assay: NGF-induced mechanical hyperalgesia in rats (pressure analgesy-meter, paw withdrawal threshold); assay type: in vivo, rat
Procedure: In order to induce a pain-related behavior (withdrawal behavior), NGF was injected into the plantar area of the left hind paw of rats and the thermal latencies/mechanical thresholds were measured. The effects of Compound A on these withdrawal behaviors were investigated. At 2 days before the injection of NGF, the thermal latencies or mechanical thresholds were measured for acclimation to the experimental environment. On the day before injection of NGF, body weights and values of the thermal latencies or mechanical thresholds were obtained. 50 μL of NGF solution was injected intraplantar to left hind paw of rats. 0.5 μg/site of NGF was selected in the evaluation of thermal stimuli and 1 μg/site was selected in that of mechanical stimuli. A monohydrochloride of Compound A (1, 3, or 10 mg/kg) was administered orally at the same time as the NGF injection. The latencies to thermal stimuli were measured at 3 and 6 hours after injection of NGF solution, and the thresholds to mechanical stimuli were measured at 1, 3 and 6 hours after injection of NGF solution. The evaluation was performed as a blind test of each group. The mechanical threshold was measured using a pressure analgesy-meter. A mechanical stimulus (pressure) increased at a constant rate was added to the hind paw, and the pressure under load until animals withdrew its hind paw or vocalization was recorded as the mechanical threshold (mmHg).

[2] = tested on: subjects with active rheumatoid arthritis; assay: Adverse events in rheumatoid arthritis human clinical trial; assay type: in vivo
Procedure: Compound A was evaluated in a multicenter, randomized, double-blind, placebo-controlled, parallel-group study in subjects with active rheumatoid arthritis. Subjects were randomized to receive orally placebo or an amount of monohydrochloride Compound A sufficient to provide 50 mg, 100 mg, 150 mg, or 200 mg of free form, once daily for 12 weeks.
The incidence of serious adverse events (SAEs) and severe treatment-emergent adverse events (TEAEs) in the clinical study was low (3.4% and 2.9%, respectively) in subjects who received treatment with one of the doses of Compound A in the clinical study.

[3] = tested on: CYP-induced cystitis model mice; assay: Mouse cyclophosphamide (CYP)-induced cystitis model, lower abdominal licking time; assay type: in vivo; details: 3, 6 or 10 mg/mL solutions at 10 mL/kg oral once per day Days 7-9
Procedure: The inhibitory effect of Compound A on lower abdominal licking time was evaluated in a mouse CYP-induced cystitis model. The evaluation was performed according to M. Fujita et al., Eur J Pain. 20 (2016) 79-91. Male C57BL/6J mice (Charles River Laboratories Japan, Inc.) were used as the experimental animals.
Once per day for four days (Days 1-4) 20 mg/mL of CYP (Sigma) dissolved in saline solution was intraperitoneally administered to a vehicle group, a Compound A administration group, and an anti-NGF antibody group at a volume of 10 mL/kg, and saline solution was intraperitoneally administered to a sham group at a volume of 10 mL/kg. A monohydrochloride of Compound A was dissolved in 0.5% methyl cellulose (MC) to prepare 3 mg/mL, 6 mg/mL, and 10 mg/mL solutions of Compound A. […]
The behavior of the mice was recorded for 90 minutes using a video camera prior to the initial administration of CYP (Pre) and on Day 7, Day 8, and Day 10, and the lower abdominal licking time (seconds) was measured. […] The mean values of the licking times of the individual animals were calculated for each group, and the results are shown in FIG. 11.

[4] = tested on: rats with CYP-induced cystitis; assay: Rat CYP-induced cystitis model, frequent urination by cystometry; assay type: in vivo; details: 2 or 6 mg/mL solutions at 5 mL/kg oral twice a day Day 1-2, cystometry Day 3
Procedure: The effect of Compound A on frequent urination, calculated by single voided volume and intermicturition interval, was evaluated using a rat CYP-induced cystitis model. The evaluation was performed according to G M. Herrera et al., PLoS ONE 5 (8): e12298. Female CD (SD) rats (Charles River Laboratories Japan, Inc.) were used as the experimental animals. A monohydrochloride of Compound A was dissolved in 0.5% MC to prepare 2 mg/mL and 6 mg/mL solutions of Compound A.
30 mg/mL of CYP (Sigma) dissolved in saline was intraperitoneally administered in the vehicle group and Compound A group and saline was intraperitoneally administered in the sham group at 5 mL/kg (Day 1).
0.5% (w/v) MC was orally administered once a day for 2 days (Day 1-2) in the sham group and vehicle group at 5 mL/kg, and 2 mg/mL or 6 mg/mL solutions of Compound A was orally administered twice a day (Day 1-2) in the Compound A administration group at 5 mL/kg.
Intravesical pressure and voided volume were measured by cystometry on Day 3, and single voided volumes and intermicturition intervals were calculated. Mean values were calculated for each group from individual single voided volumes and intermicturition intervals, and the results are shown in FIG. 12A and FIG. 12B, respectively.

[5] = subjects who received one of the doses (50-200 mg once daily, 12 weeks)

C[C@@H](C(=O)N(C)c1ccc2cc(-c3n[nH]c4c3CCC(C)(C)C4)[nH]c2c1)N1CCOCC1 [Compound A, N-[2-(6,6-dimethyl-4,5,6,7-tetrahydro-1H-indazol-3-yl)-1H-indol-6-yl]-N-methyl-(2S)-2-(morpholin-4-yl)propanamide]
dose from which significant effects were observed (mechanical threshold) ([1]; at 6 hours after NGF injection, oral): ≥ 3 mg/kg | effect on the decrease in the mechanical thresholds induced by NGF ([1]; compared with the vehicle, 1, 3, 10 mg/kg oral, dose related): prevented the decrease in the mechanical thresholds induced by NGF | safety and tolerability ([2]; doses up to 200 mg over 12 weeks of treatment): safe and tolerated | incidence of serious adverse events (SAEs) [2, 5]: 3.4% | incidence of severe treatment-emergent adverse events (TEAEs) [2, 5]: 2.9% | lower abdominal licking time [3]: reduced lower abdominal licking time | frequent urination (single voided volume, intermicturition interval) [4]: suppressed frequent urination

Reference: patent US11464782B2, “Method of treating pain or interstitial cystitis using indole compound” (Japan Tobacco Inc., priority 2018, dated 2022)
